In ChEMBL document CHEMBL5696442, “Discovery of type II inhibitors of TGFβ-activated kinase 1 (TAK1) and mitogen-activated protein kinase kinase kinase kinase 2 (MAP4K2)” (J Med Chem, 2015) one finds inhibition data, which are given here for two molecules.

Assay [1] has as its target Phosphatidylinositol 4-kinase beta (Homo sapiens) (UniProt Q9UBF8). The assay can be described thus: Inhibition of PI4KB ATP labeling site harbouring VPHTQAVVLNSKDKAPYLIYVEVLECENFDTTSVPAR in human A-375 cells at 0.05 uM by KiNativ Profiling analysis relative to control. In kind it is cell-based.
Assay [2] has as its target Mitogen-activated protein kinase 1 (Homo sapiens) (UniProt P28482). The assay can be described thus: Inhibition of ERK2 (unknown origin) at 1 uM by Ambit Kinomescan binding assay relative to control.
Assay [3] addresses Tyrosine-protein kinase CSK (Homo sapiens, UniProt P41240). The assay can be described thus: Inhibition of CSK (unknown origin) at 10 uM by Ambit Kinomescan binding assay relative to control.
The target of assay [4] is T1, Serine/threonine-protein kinase ULK1 (Homo sapiens) (UniProt O75385).
T1 sequence (whole entry): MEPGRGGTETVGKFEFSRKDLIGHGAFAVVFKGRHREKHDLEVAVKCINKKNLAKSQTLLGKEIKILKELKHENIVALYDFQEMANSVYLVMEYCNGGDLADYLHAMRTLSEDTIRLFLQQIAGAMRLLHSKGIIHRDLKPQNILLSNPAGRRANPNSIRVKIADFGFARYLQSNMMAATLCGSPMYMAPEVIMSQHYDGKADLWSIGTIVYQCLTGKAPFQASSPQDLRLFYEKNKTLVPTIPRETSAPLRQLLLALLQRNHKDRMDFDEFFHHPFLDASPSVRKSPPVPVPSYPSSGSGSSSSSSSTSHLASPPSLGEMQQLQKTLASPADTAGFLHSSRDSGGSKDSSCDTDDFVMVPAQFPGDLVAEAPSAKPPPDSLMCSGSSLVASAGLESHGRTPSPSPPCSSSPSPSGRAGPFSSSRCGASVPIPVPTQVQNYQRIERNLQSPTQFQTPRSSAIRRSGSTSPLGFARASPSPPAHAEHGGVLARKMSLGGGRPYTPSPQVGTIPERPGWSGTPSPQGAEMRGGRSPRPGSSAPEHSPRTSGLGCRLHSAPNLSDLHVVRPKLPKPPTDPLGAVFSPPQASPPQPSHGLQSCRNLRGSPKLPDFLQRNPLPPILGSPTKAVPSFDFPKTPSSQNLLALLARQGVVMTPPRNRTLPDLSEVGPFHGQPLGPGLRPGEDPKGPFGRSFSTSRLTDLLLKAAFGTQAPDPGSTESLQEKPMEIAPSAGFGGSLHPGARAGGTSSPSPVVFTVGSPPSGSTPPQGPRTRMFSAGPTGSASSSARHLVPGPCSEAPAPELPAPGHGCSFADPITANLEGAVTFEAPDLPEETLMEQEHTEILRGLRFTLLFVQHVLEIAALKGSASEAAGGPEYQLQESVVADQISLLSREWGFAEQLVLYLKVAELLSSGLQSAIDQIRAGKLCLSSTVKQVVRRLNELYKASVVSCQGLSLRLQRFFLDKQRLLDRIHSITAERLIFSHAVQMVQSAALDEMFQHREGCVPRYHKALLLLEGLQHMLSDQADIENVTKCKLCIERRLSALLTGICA
In words: Inhibition of ULK1 (unknown origin) at 10 uM by Ambit Kinomescan binding assay.

Assay [5] has as its target Calcium/calmodulin-dependent protein kinase type II subunit delta (Homo sapiens) (UniProt Q13557). The assay can be described thus: Inhibition of CaMK2d Lys1 labeling site in human A-375 cells at 5 uM by KiNativ Profiling analysis relative to control. In kind it is cell-based.
The target of assay [6] is T2, Serine/threonine-protein kinase TAO2 (Homo sapiens) (UniProt Q9UL54).
T2 sequence (whole entry): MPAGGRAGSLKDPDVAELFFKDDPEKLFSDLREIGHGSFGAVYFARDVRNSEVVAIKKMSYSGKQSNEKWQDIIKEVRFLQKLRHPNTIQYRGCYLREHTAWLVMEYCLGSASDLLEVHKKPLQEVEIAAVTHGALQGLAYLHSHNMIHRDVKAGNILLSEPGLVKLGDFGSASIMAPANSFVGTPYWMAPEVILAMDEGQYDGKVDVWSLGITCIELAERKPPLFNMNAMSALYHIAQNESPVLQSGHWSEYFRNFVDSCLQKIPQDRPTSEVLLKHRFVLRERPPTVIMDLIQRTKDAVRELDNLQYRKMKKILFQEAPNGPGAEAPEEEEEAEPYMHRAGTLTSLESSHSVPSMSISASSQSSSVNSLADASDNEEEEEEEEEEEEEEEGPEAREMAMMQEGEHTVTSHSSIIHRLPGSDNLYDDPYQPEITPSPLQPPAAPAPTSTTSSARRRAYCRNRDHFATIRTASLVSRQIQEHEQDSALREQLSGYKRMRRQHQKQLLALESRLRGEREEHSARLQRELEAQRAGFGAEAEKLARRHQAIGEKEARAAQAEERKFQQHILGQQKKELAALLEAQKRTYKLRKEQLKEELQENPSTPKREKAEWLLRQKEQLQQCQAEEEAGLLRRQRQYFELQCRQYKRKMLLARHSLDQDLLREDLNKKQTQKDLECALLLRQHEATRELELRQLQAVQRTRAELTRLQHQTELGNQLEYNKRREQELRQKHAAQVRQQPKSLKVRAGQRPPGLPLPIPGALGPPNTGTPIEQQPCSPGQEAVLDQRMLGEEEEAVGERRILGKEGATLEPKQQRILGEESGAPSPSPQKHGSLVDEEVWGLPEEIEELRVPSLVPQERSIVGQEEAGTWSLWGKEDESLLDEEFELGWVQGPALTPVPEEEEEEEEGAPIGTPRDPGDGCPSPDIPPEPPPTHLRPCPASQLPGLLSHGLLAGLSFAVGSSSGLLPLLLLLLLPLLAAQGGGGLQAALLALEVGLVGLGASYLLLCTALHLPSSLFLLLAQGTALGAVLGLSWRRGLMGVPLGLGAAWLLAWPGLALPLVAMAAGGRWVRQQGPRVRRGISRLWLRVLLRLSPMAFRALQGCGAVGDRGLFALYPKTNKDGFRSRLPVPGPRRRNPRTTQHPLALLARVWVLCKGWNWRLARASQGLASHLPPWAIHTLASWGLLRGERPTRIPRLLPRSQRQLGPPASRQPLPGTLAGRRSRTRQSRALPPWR
In words: Inhibition of TAO2 K2 labeling site in human Huh-7 cells at 10 uM by KiNativ Profiling analysis relative to control. In kind it is cell-based.

For assay [7], the target named is Serine/threonine-protein kinase 17A (Homo sapiens) (UniProt Q9UEE5). The assay can be described thus: Inhibition of DRAK1 (unknown origin) at 10 uM by Ambit Kinomescan binding assay.

Calls of active or inactive are those of the source. The calls are words filed in the database; no cut-off is given here.

Sequence of Mitogen-activated protein kinase 1 (Homo sapiens) (P28482 whole entry): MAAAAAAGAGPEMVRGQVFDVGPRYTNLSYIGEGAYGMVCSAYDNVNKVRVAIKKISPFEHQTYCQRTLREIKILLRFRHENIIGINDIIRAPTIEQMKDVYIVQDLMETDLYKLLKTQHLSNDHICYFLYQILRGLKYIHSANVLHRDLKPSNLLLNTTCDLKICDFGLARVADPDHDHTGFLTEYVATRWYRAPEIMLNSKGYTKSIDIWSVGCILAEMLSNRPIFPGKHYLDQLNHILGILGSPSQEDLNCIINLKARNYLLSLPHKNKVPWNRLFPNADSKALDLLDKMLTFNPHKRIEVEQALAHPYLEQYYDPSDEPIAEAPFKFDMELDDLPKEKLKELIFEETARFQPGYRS
Sequence of Serine/threonine-protein kinase 17A (Homo sapiens) (Q9UEE5 whole entry): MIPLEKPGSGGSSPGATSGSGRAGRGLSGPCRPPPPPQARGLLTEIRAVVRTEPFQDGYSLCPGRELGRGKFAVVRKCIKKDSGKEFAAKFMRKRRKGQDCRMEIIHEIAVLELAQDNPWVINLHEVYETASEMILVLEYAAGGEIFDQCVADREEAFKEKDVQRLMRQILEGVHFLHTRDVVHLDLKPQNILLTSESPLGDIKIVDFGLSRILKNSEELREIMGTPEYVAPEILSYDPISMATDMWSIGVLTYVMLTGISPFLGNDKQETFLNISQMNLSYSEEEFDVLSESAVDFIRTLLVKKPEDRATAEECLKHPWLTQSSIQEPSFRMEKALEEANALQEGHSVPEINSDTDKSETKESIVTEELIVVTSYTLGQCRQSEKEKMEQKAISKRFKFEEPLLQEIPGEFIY
Sequence of Calcium/calmodulin-dependent protein kinase type II subunit delta (Homo sapiens) (Q13557 whole entry): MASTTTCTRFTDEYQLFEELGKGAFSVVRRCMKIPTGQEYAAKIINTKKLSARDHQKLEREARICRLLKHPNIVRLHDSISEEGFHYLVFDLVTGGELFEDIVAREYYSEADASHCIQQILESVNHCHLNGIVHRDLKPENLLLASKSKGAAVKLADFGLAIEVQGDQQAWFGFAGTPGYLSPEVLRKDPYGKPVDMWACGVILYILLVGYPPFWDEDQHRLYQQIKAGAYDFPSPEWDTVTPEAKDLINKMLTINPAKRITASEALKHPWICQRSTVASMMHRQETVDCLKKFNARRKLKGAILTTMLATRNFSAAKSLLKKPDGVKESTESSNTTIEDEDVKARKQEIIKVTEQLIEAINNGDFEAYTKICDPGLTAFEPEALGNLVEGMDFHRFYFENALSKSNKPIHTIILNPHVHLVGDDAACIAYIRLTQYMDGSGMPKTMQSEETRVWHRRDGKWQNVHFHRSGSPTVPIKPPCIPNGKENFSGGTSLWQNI
Sequence of Phosphatidylinositol 4-kinase beta (Homo sapiens) (Q9UBF8 2-816 limits assumed): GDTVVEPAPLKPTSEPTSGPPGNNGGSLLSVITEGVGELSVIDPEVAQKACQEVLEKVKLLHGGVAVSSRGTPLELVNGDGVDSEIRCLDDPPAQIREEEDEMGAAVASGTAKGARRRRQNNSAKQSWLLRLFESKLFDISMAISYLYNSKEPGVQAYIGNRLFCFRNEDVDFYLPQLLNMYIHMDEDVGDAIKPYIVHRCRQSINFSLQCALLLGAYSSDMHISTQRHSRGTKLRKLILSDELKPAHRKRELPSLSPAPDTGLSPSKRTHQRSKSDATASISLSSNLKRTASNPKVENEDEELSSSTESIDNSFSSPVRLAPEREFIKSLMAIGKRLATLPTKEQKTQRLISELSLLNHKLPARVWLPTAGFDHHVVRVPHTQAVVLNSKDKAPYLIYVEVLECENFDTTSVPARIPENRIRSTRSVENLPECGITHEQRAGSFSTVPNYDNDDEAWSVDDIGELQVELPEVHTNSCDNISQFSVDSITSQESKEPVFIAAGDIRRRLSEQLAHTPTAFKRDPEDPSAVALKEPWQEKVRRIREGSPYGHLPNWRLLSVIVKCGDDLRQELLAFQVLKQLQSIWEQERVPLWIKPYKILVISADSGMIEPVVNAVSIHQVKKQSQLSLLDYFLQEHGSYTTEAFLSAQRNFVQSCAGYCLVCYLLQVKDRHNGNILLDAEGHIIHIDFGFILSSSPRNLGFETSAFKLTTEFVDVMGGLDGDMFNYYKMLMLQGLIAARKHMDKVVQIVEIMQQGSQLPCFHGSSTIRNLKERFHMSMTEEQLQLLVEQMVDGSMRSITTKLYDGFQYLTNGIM
Sequence of Tyrosine-protein kinase CSK (P41240 2-450 limits assumed): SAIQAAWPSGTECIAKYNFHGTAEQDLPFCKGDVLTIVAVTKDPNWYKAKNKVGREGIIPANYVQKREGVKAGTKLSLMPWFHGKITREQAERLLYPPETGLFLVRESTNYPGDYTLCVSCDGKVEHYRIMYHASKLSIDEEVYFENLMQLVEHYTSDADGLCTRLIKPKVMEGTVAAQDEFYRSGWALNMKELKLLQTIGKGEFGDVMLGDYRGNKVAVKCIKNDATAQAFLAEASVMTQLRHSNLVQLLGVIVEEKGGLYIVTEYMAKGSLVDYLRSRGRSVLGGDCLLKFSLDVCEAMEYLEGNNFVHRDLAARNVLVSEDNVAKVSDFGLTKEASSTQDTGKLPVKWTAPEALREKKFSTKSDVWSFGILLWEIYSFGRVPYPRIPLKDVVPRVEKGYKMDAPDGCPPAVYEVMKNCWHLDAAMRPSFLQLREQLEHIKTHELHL

The term inhibition denotes the percentage by which the read-out fell short of the control. Take `CCN1CCN(Cc2ccc(NC(=O)c3ccc(C)c(/C=C/c4cnc5[nH]ccc5c4OC)c3)cc2C(F)(F)F)CC1`: the inhibition came out at 11.6% in assay [1] and 100% in assay [2].
Regarding `CCN1CCN(Cc2ccc(NC(=O)c3ccc(C)c(Oc4ccnc5[nH]ccc45)c3)cc2C(F)(F)F)CC1`, the inhibition in assay [3] was 0.45%; in assay [5], 18.9%; in assay [6], 28.6%. The inhibition entry in assay [4] and in assay [7] was “inactive” each time.
